Test results taken from patent publication US10172814B2, “Substituted pyridyl-cycloalkyl-carboxylic acids, compositions containing them and medical uses thereof” (BAYER PHARMA AKTIENGESELLSCHAFT, priority 2014, dated 2019).

Target: human PTGES (Homo sapiens (Human), UniProt O14684)
Experiment: Human PTGES biochemical enzyme inhibition assay (conversion of PGH2 to PGE2, TR-FRET)
Details: Enzymatic conversion of PGH2 to PGE2; read-out: Human PTGES IC50
Method: Human PTGES Biochemical Enzyme Inhibition Assay:
PTGES (Microsomal prostaglandin E synthase 1) is an enzyme that converts prostaglandin H2 (PGH2) to prostaglandin E2 (PGE2) in the presence of reduced glutathione (GSH).
Recombinant proteins (human isoforms) of PTGES containing a FLAG tag, expressed in baculovirus infected insect cells (Hi-5) and purified by affinity chromatography was used as enzyme in the assay. Substrate was prostaglandin H2 (Cayman Chemicals).
4 ul of a solution of human PTGES in assay buffer [100 mM sodium phosphate pH 7.2, 2.5 mM Glutathion reduced, 1 mM EDTA, 0.01% BSA, 0.4 mM DTT, 0.15 mM n-dodecylmaltoside] was added to the well containing test compound and incubated for 15-20 minutes to allow binding of the compound to the enzyme prior to the enzymatic reaction. The reaction was started by addition of 1 ul of an ice cold solution containing PGH2 (40 nM in assay buffer resulting in a final concentration of 8 nM PGH2 in the assay). […] The concentration of each isoform of PTGES was adapted to the activity of the respective enzyme preparation to maintain linear reaction properties within the reaction time. […] The reaction was stopped by addition of 1 ul of a solution containing 15 mM SnCl2 and 400 mM KF in water. SnCl2 converts the remaining unstable PGH2 to stable PGF2alpha. Then, 3 ul of the a first detection solution containing PGE2-D2 (Cisbio Bioassays, TR-FRET reagent, diluted according to the manufacturer's recommendation, typically 1:20 in reconstitution buffer) was added. […] The resulting mix was incubated overnight at 4° C. to allow the formation of a complex of PGE2 and the detection reagents. […] Dilution series were made prior to the assay in a 100 fold concentrated form by serial dilution. IC50 values were calculated by 4-Parameter fitting.

Chain of human PTGES (O14684 whole entry): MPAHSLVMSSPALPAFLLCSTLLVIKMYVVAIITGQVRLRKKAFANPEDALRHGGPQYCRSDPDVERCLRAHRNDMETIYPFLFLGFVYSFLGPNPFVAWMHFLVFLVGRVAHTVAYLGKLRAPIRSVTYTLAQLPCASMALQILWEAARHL

Row | Compound | IC50 [nM]
1 | Cc1ncc(-c2ccc(C(C(=O)Nc3cccc(CCC(=O)O)c3C)C3CCCC3)cc2F)cc1CC(C)C (single isomer, unassigned; (-)) [Example 198, (−) 3-[3-({cyclopentyl[3-fluoro-4-(5-isobutyl-6-methylpyridin-3-yl)phenyl]acetyl}amino)-2-methylphenyl]propanoic acid, Single Enantiomer] | 20
2 | Cc1c(CCC(=O)O)cccc1NC(=O)C(c1ccc(-c2cncc(Cl)c2)cc1)C1CC1 (racemic) [Example 31, (R/S) 3-[3-({[4-(5-Chloropyridin-3-yl)phenyl](cyclopropyl)acetyl}amino)-2-methylphenyl]propanoic acid] | 443
3 | Cc1c(NC(=O)C(c2ccc(-c3cncc(C(F)(F)F)c3)c(F)c2)C2CCC2)cccc1C(C)CC(=O)O (mixture of isomers) [Example 146, 3-{3-[(Cyclobutyl{3-fluoro-4-[5-(trifluoromethyl)pyridin-3-yl]phenyl}acetyl)amino]-2-methylphenyl}butanoic acid, Stereoisomeric Mixture 1] | 12.6
4 | Cc1c(CCC(=O)O)cccc1NC(=O)C(c1ccc(-c2ccc(C(F)(F)F)nc2)cc1)C1CCCC1 (racemic) [Example 4, (R/S) 3-{3-[(Cyclopentyl{4-[6-(trifluoromethyl)pyridin-3-yl]phenyl}acetyl)amino]-2-methylphenyl}propanoic acid] | 1320
5 | Cc1c(CCC(=O)O)cccc1NC(=O)C(c1ccc(-c2cncc(OC(C)C)c2)c(F)c1)C1CCC1 (single isomer, unassigned; (-)) [Example 209, (−) 3-[3-({cyclobutyl[3-fluoro-4-(5-isopropoxypyridin-3-yl)phenyl]acetyl}amino)-2-methylphenyl]propanoic acid, Single Enantiomer] | 39.3
6 | Cc1c(CCC(=O)O)cccc1NC(=O)C(c1ccc(-c2cncc(C(F)(F)F)c2)c(Cl)c1)C1CCCC1 (racemic) [Example 175, (R/S) 3-[3-({[3-chloro-4-(5-(trifluoromethyl)pyridin-3-yl)phenyl](cyclopentyl)acetyl}amino)-2-methylphenyl]propanoic acid] | 34.6
7 | Cc1cncc(-c2ccc(C(C(=O)Nc3cccc(CC(C)C(=O)O)c3C)C3CCCC3)cc2)c1 (centres unmarked) [Example 81, (2R/2S)-3-[3-({(2R/2S)-2-Cyclopentyl-2-[4-(5-methylpyridin-3-yl)phenyl]acetyl}amino)-2-methylphenyl]-2-methylpropanoic acid] | 172
8 | Cc1c(NC(=O)C(c2ccc(-c3cncc(C(F)(F)F)c3)cc2)C2CCCC2)cccc1C(CC(=O)O)C1CC1 (mixture of isomers) [Example 109, (3R/S)-3-(3-{[(2R/S)-2-cyclopentyl-2-{4-[5-(trifluoromethyl)pyridin-3-yl]phenyl}acetyl]amino}-2-methylphenyl)-3-cyclopropylpropanoic acid] | 24.9
9 | COc1ccc(-c2ccc(C(C(=O)Nc3cccc(CCC(=O)O)c3C)C3CCCC3)cc2)cn1 (racemic) [Example 18, (R/S) 3-[3-({Cyclopentyl[4-(6-methoxypyridin-3-yl)-phenyl]acetyl}amino)-2-methylphenyl]propanoic acid] | 236
10 | Cc1c(CCC(=O)O)cccc1NC(=O)[C@@H](c1ccc(-c2cncc(CC(F)(F)F)c2)cc1)C1CCCC1 [Example 191, 3-(3-{[(2R)-2-cyclopentyl-2-{4-[5-(2,2,2-trifluoroethyl)pyridin-3-yl]phenyl}acetyl]amino}-2-methylphenyl)propanoic acid] | 60.1
11 | Cc1cc(C(C(=O)Nc2cccc(CCC(=O)O)c2C)C2CCCC2)c(F)cc1-c1cnc(C)c(Cl)c1 (racemic) [Example 182, (R/S) 3-[3-({[4-(5-chloro-6-methylpyridin-3-yl)-2-fluoro-5-methylphenyl](cyclopentyl)acetyl}amino)-2-methylphenyl]propanoic acid] | 741
